Measured values from PubChem BioAssay AID1013 (Columbia University Molecular Screening Center, 2008).
Active and inactive are the calls of the source. The rule behind the calls is not given here.

Columns and labels:
[1] = tested on: TNFa-stimulated cells, VCAM1 expression imaging; test: blockers of VCAM1 upregulation by TNFa – imaging, TNFa stimulus, retest and dose response, confirmation (AID 1013);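 for cell count: compound on cells 1 h before TNFa then 24 h more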
[2] = as above; details: TNFa-stimulated cells, VCAM1 expression imaging; cell count; at 10 µM; stronger effect = lower value

| SMILES | IC50 [1] | cell count [2] |
| --- | --- | --- |
| CCn1c2ccccc2c2cc(NC(=O)c3cc(OC)c(OC)c(OC)c3)ccc21 | 2.79 µM | 33.6% |
| Cc1cc(C)c(S(=O)(=O)Nc2ccc3c4c(cccc24)CC3)c(C)c1 | > 10 µM (inactive) | 106% |
| N=c1c2c(-c3ccccc3)c(-c3ccccc3)n(Cc3ccccc3)c2ncn1CCCn1ccnc1 | 1.06 µM | 56.8% |
| CCCOC(=O)c1[nH]c2c(c1C)C(=O)CC(c1cccs1)C2 (stereo not drawn) | > 10 µM (inactive) | 89% |
| COc1cc(C2C3=C(Nc4ncnn42)c2ccccc2CC3)cc(OC)c1OC (stereo not drawn) | 1.76 µM | 27.6% |
| CCOc1ccc(C2=Nn3c(nnc3-c3ccccc3OC)SC2)cc1 | < 0.1 µM | 32.1% |
| O=C(NC(Nc1nc2ccc([N+](=O)[O-])cc2s1)(C(F)(F)F)C(F)(F)F)c1ccccc1 | 0.34 µM | 46.9% |
| Cc1ccccc1NC1=C/C(=N\S(=O)(=O)c2cccs2)c2ccccc2C1=O | > 10 µM (inactive) | 99.8% |
| CC1CCC/C=C/C2CC(O)CC2C(O)/C=C/C(=O)O1 (stereo not drawn) | 0.112 µM | 19.2% |
| O=c1c2ccccc2nc(/C=C/c2ccc([N+](=O)[O-])o2)n1CCCO | 1.54 µM | 83.1% |
| O=C(COC(=O)c1ccccc1C(=O)c1ccc(Cl)c([N+](=O)[O-])c1)NC1CCCCCC1 | > 10 µM (inactive) | 91% |
| CC(C)(C)C(=O)/C(=C\c1cccc([N+](=O)[O-])c1)n1cncn1 | 1.09 µM | 1.73% |
| COc1ccc(C2=Nn3c(nnc3-c3ccc(OC)cc3)SC2)cc1 | > 10 µM (inactive) | 114% |
| O=C(c1ccc(Br)cc1)c1cc([N+](=O)[O-])ccc1N1CCCCC1 | > 10 µM (inactive) | 102% |
| Nc1nnnn1/N=C/C(Br)=C/c1ccccc1 | > 10 µM (inactive) | 106% |
| COc1ccc(CCNc2nnc(Sc3nnnn3-c3ccccc3)s2)cc1OC | 1.61 µM | 27.4% |
| CCCOc1ccccc1C1CC(=O)Nc2cc3c(cc21)OCCO3 (stereo not drawn) | > 10 µM (inactive) | 113% |
| CC(=O)c1c(C)oc2ccc(N(C(C)=O)S(=O)(=O)c3ccc(Cl)c([N+](=O)[O-])c3)cc12 | > 10 µM (inactive) | 104% |
| O=[N+]([O-])c1ccc(Sc2nc3ccccc3o2)c([N+](=O)[O-])c1 | > 10 µM (inactive) | 106% |
| Cc1cc(NC(=O)CSc2nc(-c3ccco3)cc(C(F)(F)F)n2)no1 | > 10 µM (inactive) | 94.3% |
| Cc1ccc(CSc2nc3ccccc3cc2C=O)cc1 | > 10 µM (inactive) | 110% |
| O=C(CS(=O)c1ccc(C(F)(F)F)cc1[N+](=O)[O-])Oc1ccc(Cl)cc1 (stereo not drawn) | > 10 µM (inactive) | 111% |
| O=S(=O)(C/C(=C/CO)S(=O)(=O)c1ccccc1)c1ccccc1 | 1.63 µM | 9.93% |
| COc1ccc(C(=O)c2ccc(N(C)C)cc2)c2ccccc12 | > 10 µM (inactive) | 93.2% |
| CCSc1nc2ccccc2n1C(=O)/C=C\c1ccc(OC)c(OC)c1 | > 10 µM (inactive) | 98.3% |
| CCN1/C(=C\C=C\C2=[N+](CC)c3ccccc3C2(C)C)C(C)(C)c2ccccc21 | 0.41 µM | 60.4% |
| COc1ccc(NC(=O)/C(Cl)=C(/Cl)S(=O)Cc2ccc(C)cc2)cn1 (stereo not drawn) | 2.19 µM | 55% |

| SMILES | IC50 [1] | cell count [2] |
| --- | --- | --- |
| CCOC(=O)Nc1nc(-c2ccccc2)c(C(=O)c2ccccc2)s1 | > 10 µM (inactive) | 61.6% |
| OCCN=C1CCCc2c1[nH]c1ccc(Br)cc21 | 0.15 µM | 76.3% |
| Cc1cc(NC(=O)CSc2nc(-c3cccs3)cc(C(F)(F)F)n2)no1 | > 10 µM (inactive) | 111% |
| CCC1=Nc2cc(C(=O)NCCCOC)ccc2Sc2ccccc21 | 1.67 µM | 34.9% |
| CCC(=O)Nc1nc(-c2ccccc2)ns1 | > 10 µM (inactive) | 115% |
| O=S(=O)(c1ccc(Cl)cc1)c1snnc1-c1ccccc1 | 4.86 µM | 71.6% |
| N#CC1=C(N)Oc2c(ccc3ccccc23)C1c1cccs1 (stereo not drawn) | > 10 µM (inactive) | 69.2% |
| COc1ccc(N=c2oc3ccc(OC)cc3cc2-c2nc3ccccc3[nH]2)cc1 | > 10 µM (inactive) | 110% |
| COc1cc(C2C(C#N)=C(N)Oc3cc(N(C)C)ccc32)cc2c1OCO2 (stereo not drawn) | 5.11 µM | 47.6% |
| Cc1ccc(Nc2nc(-c3c(C)nc4ccccn34)cs2)cc1 | 3.8 µM | 27.9% |
| O=C1c2cccc3c([N+](=O)[O-])ccc(c23)C(=O)N1c1nccs1 | > 10 µM (inactive) | 101% |
| O=C(Nc1nccs1)c1cccc(N2C(=O)c3cccc4c([N+](=O)[O-])ccc(c34)C2=O)c1 | > 10 µM (inactive) | 102% |
| O=C(c1ccco1)N1CCN(C(=O)N2c3ccccc3Sc3ccccc32)CC1 | 3.52 µM | 40.3% |
| CC(=O)c1ccc(Oc2cc(C)nc(-n3nc(C)cc3C)n2)cc1 | 3.83 µM | 46.9% |
| COc1ccc(NS(=O)(=O)c2cc(C)ccc2NC(=O)c2cc(C)oc2C)cc1 | 3.16 µM | 71% |
| COc1ccc(NC(=O)/C(Cl)=C(/Cl)S(=O)Cc2ccccc2)cn1 (stereo not drawn) | 1.06 µM | 34.2% |
| Cc1cc(=O)oc2cc(OCC3CC(c4ccccc4Cl)=NO3)ccc12 (stereo not drawn) | > 10 µM (inactive) | 106% |
| CC1=C([N+](=O)[O-])C(c2ccccc2)C2=C(N1)c1ccccc1C2=O (stereo not drawn) | > 10 µM (inactive) | 111% |
| COc1ccc(NC(=O)/C(Cl)=C(/Cl)S(=O)(=O)Cc2ccc(C)cc2)cn1 | 3.25 µM | 22.9% |
| Cn1cc(/C=N/n2cnc3scc(-c4ccc(Cl)cc4)c3c2=O)c2ccccc21 | > 10 µM (inactive) | 88.1% |
| O=[N+]([O-])c1ccc(O)c(/C=N/Nc2ccc(Cl)nn2)c1 | > 10 µM (inactive) | 106% |
| Cc1cccc(OCC(=O)Nc2cc(C)ccc2O)c1 | 0.452 µM | 91.2% |
| Oc1ccc(Nc2nc(-c3ccc4ccccc4c3)cs2)cc1 | > 10 µM (inactive) | 92.9% |
| CCOC(=O)c1[nH]c(C)c(C(=O)N2CCc3ccccc32)c1C | 0.778 µM | 61.8% |
| COc1ccc(OC)c(NS(=O)(=O)c2ccc(N3CCCC3=O)cc2)c1 | 2.93 µM | 43.7% |
| COc1ccc(-c2cc(C(F)(F)F)n3nc(C(=O)Nc4cc(C)on4)cc3n2)cc1OC | > 10 µM (inactive) | 97.9% |
| CCOc1cc(/C=N\NC(=O)Cc2ccccc2)ccc1OCC(=O)Nc1ccc(C)c(C)c1 | > 10 µM (inactive) | 110% |

| SMILES | IC50 [1] | cell count [2] |
| --- | --- | --- |
| CC1=CC(C)(C)N(S(=O)(=O)c2ccc(C)cc2)c2cc(C)ccc21 | > 10 µM (inactive) | 113% |
| COc1ccc(C(=O)C(CN2CCOCC2)c2ccccc2)cc1 (stereo not drawn) | 2.68 µM | 73.8% |
| O=C1CCCc2c1[nH]c1ccc(Cl)cc21 | 0.888 µM | 61.6% |
| CC(/C=N/NC(=O)c1cc(-c2ccc(Cl)cc2)nc2ccccc12)=C\c1ccco1 | > 10 µM (inactive) | 116% |
| O=C1c2cccc3c([N+](=O)[O-])ccc(c23)C(=O)N1c1ccc(Cl)cn1 | > 10 µM (inactive) | 103% |
| Cc1cc(NC(=O)CSc2nc3ccccc3c(=O)n2C2CCCC2)no1 | > 10 µM (inactive) | 111% |
| C#CC(=O)N(c1cccc(OC)c1)C(C(=O)NC1CCCC1)c1cccs1 (stereo not drawn) | 1.77 µM | 0.98% |
| Cc1ccc2[nH]c(-c3ccccc3)cc(=O)c2c1 | 4.49 µM | 63.3% |
| COc1cc(/C=N/Nc2snc(SC)c2C#N)ccc1O | > 10 µM (inactive) | 105% |
| O=C(N/N=C/C=C/c1ccccc1)c1n[nH]c2c1CCC2 | > 10 µM (inactive) | 103% |
| Cc1ccccc1CS(=O)(=O)c1nnc([C@H](Cc2ccccc2)NC(=O)OC(C)(C)C)o1 | > 10 µM (inactive) | 114% |
| COc1ccc(C2=Nn3c(nnc3-c3ccccc3OC)SC2)cc1OC | 0.557 µM | 46.9% |
| COc1ccc(-c2cc3ccccc3oc2=O)cc1NC(=O)c1ccc([N+](=O)[O-])o1 | > 10 µM (inactive) | 107% |
| CCN(CC)c1ccc2cc(-c3nc4ccccc4n3C)c(=O)oc2c1 | > 10 µM (inactive) | 106% |
| COC(=O)C[C@]1(C(=O)OC)CN(C#N)N(c2ccc(Cl)cc2)C12c1ccccc1-c1ccccc12 | > 10 µM (inactive) | 104% |
| CC[C@@H](C)[C@H](NC(=O)OC(C)(C)C)c1nnc(S(=O)(=O)Cc2cc(C)ccc2C)o1 | > 10 µM (inactive) | 117% |
| CCN(CC)c1ccc2c(c1)OC(N)=C(C#N)C2c1cccnc1 (stereo not drawn) | 0.38 µM | 29.8% |
| COc1ccc(C(=O)C(CN2CCCC2)c2ccccc2)cc1 (stereo not drawn) | 2.07 µM | 73.4% |
| Cc1cccc2cc(C#N)c(SCC(=O)N3CC(=O)Nc4ccccc43)nc12 | > 10 µM (inactive) | 110% |
| COc1cc(/C=C(/C#N)C(=O)NCCc2c[nH]c3ccccc23)ccc1OCc1ccccc1F | > 10 µM (inactive) | 98.2% |
| CCc1ccc(C(=O)/C=C/c2ccc([N+](=O)[O-])o2)cc1 | > 10 µM (inactive) | 94.9% |
| C=CCSc1nc2ccccc2n1C(=O)/C=C/c1cc(OC)c(OC)c(OC)c1 | > 10 µM (inactive) | 106% |
| COc1cc(-c2nnc3n2N=C(c2ccccc2)CS3)cc(OC)c1OC | > 10 µM (inactive) | 99.8% |
| O=S(=O)(c1ccc2c(c1)C(=NO)c1cc(S(=O)(=O)N3CCCCC3)ccc1-2)N1CCCCC1 | > 10 µM (inactive) | 118% |
| CCOc1ccccc1C(=O)N1CCN(c2cccc(Cl)c2)CC1 | 0.231 µM | 15.7% |
